Assay results as given in patent publication US9242992B2, “Crystal form of tricyclic benzopyran compound and production method thereof” (NISSAN CHEMICAL INDUSTRIES, LTD., priority 2009, dated 2016).

Key:
Format in all cases: physicochemical
[1] = Acceleration test (total impurities by HPLC); conditions: for Total amount of impurities by HPLC, measured value after test / Increase of impurities in acceleration test (in words): 40° C., 75% RH, 6 months, air-tight container; for Total amount of impurities by HPLC, initial value: Test Example 2, before the acceleration test
Protocol: The A-, B- and E-form crystals of Compound (1) were subjected to an acceleration test. The conditions for the test were as follows.
Acceleration test: 40° C., 75% RH, 6 months, in an air-tight container
(§1) In addition, the stability of the crystals was evaluated by the degree of increase of the total amount of impurities by HPLC analysis.

[2] = Specific surface area by BET method (nitrogen adsorption); conditions: for Specific surface area: BET, adsorption temperature 77K, equilibrium time 300 seconds
Protocol: [Measurement conditions] adsorption temperature: 77K, adsorption equilibrium time: 300 seconds
[Measured value unit] square meter/gram
The measurement was performed by the BET method using the nitrogen adsorption in liquid nitrogen after a pre-treatment in refluxed liquid nitrogen.

[3] = Solubility, Japanese Pharmacopoeia dissolution test in JP2 pH 6.8; conditions: for Solubility: JP2, pH 6.8, 60 minutes, 10 mg in 500 mL, 37° C.
Protocol: The solubility and the specific surface area of the A-form, B-form, E-form and F-form crystals of Compound (1) were examined.
[Measurement conditions] JP2, pH 6.8 (3.40 g of potassium dihydrogen phosphate and 3.55 g of anhydrous disodium hydrogen phosphate is dissolved in water to obtain 1 liter of solution. The 1 volume of the solution is mixed with the 1 volume of water to obtain JP2, pH 6.8.), 60 minutes
according to the Japanese Pharmacopoeia fifteenth edition, dissolution test (Protocol of the dissolution test; sample amount: 10 mg, test solution: JP2, pH 6.8, 500 mL, sampling point: 5, 15, 30, 60 min, paddle rotational speed: […], bath temperature: 37° C.)

[4] = Water adsorption analysis; conditions: 25° C., sample 0.2 g, pre-treatment 60° C. 20 hours
Protocol: The A-, B- and E-form crystals of Compound (1) were evaluated by water adsorption analysis.
[Measurement conditions] sample amount: 0.2 g; pre-treatment: 60° C., 20 hours; temperature 25° C., Volumetric adsorption apparatus (trade name: BELSORP 18 manufactured by BEL Japan, Inc.) was used.

[5] = High-temperature XRD measurement
Protocol: The A-form and B-form crystals of Compound (1) were subjected to the high-temperature XRD measurement.
As shown in FIG. 8 and FIG. 9, there was observed no change until 100° C. in the powder X-ray diffractogram of the A-form crystal and until 60° C. in the powder X-ray diffractogram of the B-form crystal.

[6] = Thermostability, humidity stability and photostability tests (total impurities by HPLC); conditions: for Total amount of impurities by HPLC, initial value: Test Example 1, before the stability tests
Protocol: The thermostability, humidity stability and photostability of the A-, B- and F-form crystals of Compound (1) were examined.
The conditions for each test were as follows.
Thermostability test: 60° C., humidity was not controlled, 2 weeks, in air-tight container
Humidity stability test: 25° C., 90% RH, 2 weeks, in opened container
Photostability test: 200 W/m^2·hr, 25° C., 60% RH, 57 hours, in opened container
as §1

SMILES | Total amount of impurities by HPLC, measured value after test [1] [%] | Total amount of impurities by HPLC, initial value [1] [%] | Specific surface area [2] [square meter/gram] | Solubility [3] [%] | Adsorption of water (in words) [4] | Temperature until which no change was observed in the powder X-ray diffractogram [5] [°C] | Total amount of impurities by HPLC, initial value [6] [%] | Increase of impurities in acceleration test (in words) [1] | Specific surface area (in words) ([2]; BET method) | Solubility in the JP2 solution (in words) ([3]; JP2, pH 6.8) | Adsorption of water (in words) ([4]; listed as A-form) | Increase of impurities under the conditions (in words) ([6]; thermostability, humidity stability and photostability tests)
Cc1cc(CO)nc2cc3c(cc12)OC(C)(C)[C@H](O)[C@H]3NCCc1ccccc1 [B-form crystal, (3R,4S)-7-hydroxymethyl-2,2,9-trimethyl-4-(phenethylamino)-3,4-dihydro-2H-pyrano[2,3-g]quinolin-3-ol] | 1.15 | 0.42 | 0.3 | 27 | the adsorption of water was observed, the adsorption was reversible | 60 | 0.55 |  |  |  |  | 
Cc1cc(CO)nc2cc3c(cc12)OC(C)(C)[C@H](O)[C@H]3NCCc1ccccc1 [A-form crystal, (3R,4S)-7-hydroxymethyl-2,2,9-trimethyl-4-(phenethylamino)-3,4-dihydro-2H-pyrano[2,3-g]quinolin-3-ol] | 0.80 | 0.70 | 0.7 | 36 | less than that on E-form crystal | 100 | 0.84 | no increase of impurities | high value | high solubility | no adsorption of water | no increase of impurities
Cc1cc(CO)nc2cc3c(cc12)OC(C)(C)[C@H](O)[C@H]3NCCc1ccccc1 [E-form crystal, (3R,4S)-7-hydroxymethyl-2,2,9-trimethyl-4-(phenethylamino)-3,4-dihydro-2H-pyrano[2,3-g]quinolin-3-ol] | 0.64 | 0.64 | 0.3 | 23 | no adsorption of water |  |  | no increase of impurities |  |  |  | 
Cc1cc(CO)nc2cc3c(cc12)OC(C)(C)[C@H](O)[C@H]3NCCc1ccccc1 [F-form crystal, (3R,4S)-7-hydroxymethyl-2,2,9-trimethyl-4-(phenethylamino)-3,4-dihydro-2H-pyrano[2,3-g]quinolin-3-ol] |  |  |  | 30 |  |  | 0.25 |  |  |  |  | 
